Target: T1, PLA2 (phospholipase A2) from rat platelets (Rattus norvegicus, UniProt P14423)
T1 construct: from tissue; host or cells: rat platelets
T1 sequence (P14423 22-146): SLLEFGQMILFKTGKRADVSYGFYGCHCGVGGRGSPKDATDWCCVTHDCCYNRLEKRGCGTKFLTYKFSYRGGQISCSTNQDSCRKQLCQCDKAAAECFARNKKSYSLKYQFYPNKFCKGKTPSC
Assay: Phospholipase A2 inhibitory activity (release of free fatty acid from 14C-labelled phosphatidylethanolamine)
Format: biochemical
Settings: rat platelet PLA2; Tris-buffer 0.1M, pH 7.4; CaCl2 3 mM; 37° C., 20 minutes
Procedure: The compounds of the present invention were tested for their Phospholipase A2 inhibitory activity by the following procedure.
1-Palmitoyl-2-[1-^14 C]-linoleoyl L-3-Phosphatidylethanolamine (Amersham, Inc., 59 mCi/mmol) were diluted with L-α-phosphatidylethanolamine (Sigma, Co., from […]) [2,000 dpm/nmol], and the dilution was sonicated. The resultant dilution was used as a substrate. The PLA2 (phospholipase A2) which was used in the test was from rat platelets. The PLA2 and the substrate preparation were added to a solution of CaCl2 (3 mM)in Tris-buffer (0.1M, pH 7.4), and the mixture was allowed to react at 37° C. for 20 minutes. Then, the reaction was terminated by adding 1.25 ml of Dole's reagent to the reaction mixture and stirring immediately the resultant mixture. To the mixture was added 0.5 ml of distilled water and 0.8 ml of n-heptane, and the mixture was stirred, centrifuged, and the resulting supernatant was taken into another tube. To this supernatant were added additional 0.8 ml of n-heptane and silica gel, and the mixture was stirred, centrifuged, and then the supernatant was taken into vials. Toluene cocktails were added to the vials. The amount of free fatty acid released from PLA2 (DPM value) was determined using liquid scintillation counter.
Inhibitory activity (%) was estimated by the formula: [(DPM value at the addition of the inhibitor-DPM value without PLA2)/(DPM value with only PLA2 -DPM value without PLA2)]×100.

Structure (SMILES)	IC50 [µM]
COc1c(C)c(OC(=O)c2c(C)c(C)c(OC(=O)c3c(C)c(CNCC(=O)OCc4ccccc4)c(O)c(C)c3O)c(C)c2OC)c(C)c(C)c1C(=O)O [Compound 1a, 4-[4'-(4"-Carboxy-3"-methoxy-2",5",6"-trimethylphenoxycarbony)-3'-methoxy-2',5',6'-trimethylphenoxycarbonyl]-2,5-dimethyl-6-benzyloxyglycylmethylresorcinol]	0.026
CCOC(=O)CNCc1c(C)c(C(=O)Oc2c(C)c(C)c(C(=O)Oc3c(C)c(C)c(C(=O)O)c(OC)c3C)c(OC)c2C)c(O)c(C)c1O [Compound 1b]	0.17
COc1ccc(CCOCc2c(C)c(C(=O)Oc3c(C)c(C)c(C(=O)Oc4c(C)c(C)c(C(=O)O)c(OC)c4C)c(OC)c3C)c(O)c(C)c2O)cc1 [Compound 1c]	0.16
CCCCOCc1c(C)c(C(=O)Oc2c(C)c(C)c(C(=O)Oc3c(C)c(C)c(C(=O)O)c(OC)c3C)c(OC)c2C)c(O)c(C)c1O [Compound 1d]	0.12
COc1c(C)c(OC(=O)c2c(C)c(C)c(OC(=O)c3c(C)c(CNCCCCC(NC(=O)OCc4ccccc4)C(N)=O)c(O)c(C)c3O)c(C)c2OC)c(C)c(C)c1C(=O)O (stereo not drawn) [Compound 1e]	1.1
COc1c(C)c(OC(=O)c2c(C)c(C)c(OC(=O)c3c(C)c(CO)c(O)c(C)c3O)c(C)c2OC)c(C)c(C)c1C(=O)O [Compound 1f]	0.38
COCc1c(C)c(C(=O)Oc2c(C)c(C)c(C(=O)Oc3c(C)c(C)c(C(=O)O)c(OC)c3C)c(OC)c2C)c(O)c(C)c1O [Compound 1g]	0.34
COCc1c(C)c(C(=O)Oc2c(C)c(C)c(C(=O)O)c(OC)c2C)c(OC)c(C)c1O [Compound 1i]	3.9
COc1c(C)c(OC(=O)c2c(C)c(C)c(OC(=O)c3c(C)c(CN[C@H](C)c4ccccc4)c(O)c(C)c3O)c(C)c2OC)c(C)c(C)c1C(=O)O [Compound 6b, 4-[4'-[5"-(Sec-phenethylaminomethyl)-2",4"-dihydroxy-3",6"-dimethylphenylcarboxy]-2'-methoxy-3',5',6'-trimethyl]phenylcarboxy-2-methoxy-3,5,6-trimethyl benzoic acid]	0.3
